Results taken from paper PMC7587356, “High-Throughput Screening for Inhibitors of the SARS-CoV-2 Protease Using a FRET-Biosensor” (Molecules, 2020).
Structures can show the parent of a compound that is named as a salt. Where two headings read alike, the source gives them in different places.

Biological target: SARS-CoV-2 3CLpro (Severe acute respiratory syndrome coronavirus 2, UniProt P0DTD1)
Test: biochemical
Type: biochemical
Design: Replicate_1 / Replicate_2 / mean / mean (LOPAC_screen_w_protease): unit not given here
Details: for inhibition at 5 µM: 4 h
[1] = LOPAC1280 primary screen with protease, 5 µM compound, mean of the two replicates
[2] = LOPAC1280 primary screen with protease, 5 µM compound, replicate 1
[3] = LOPAC1280 primary screen with protease, 5 µM compound, replicate 2
[4] = sheet LOPAC_screen_w_protease, LOPAC1280 primary screen with protease, 5 µM compound, mean of the two replicates
[5] = sheet LOPAC_screen_w_protease, LOPAC1280 primary screen with protease, 5 µM compound, replicate 1
[6] = sheet LOPAC_screen_w_protease, LOPAC1280 primary screen with protease, 5 µM compound, replicate 2
[7] = sheet LOPAC_screen_w_protease, LOPAC1280 primary screen at 5 µM, with protease, mean of the two replicates
[8] = sheet LOPAC_screen_w_protease, LOPAC1280 primary screen at 5 µM, with protease, replicate 1
[9] = sheet LOPAC_screen_w_protease, LOPAC1280 primary screen at 5 µM, with protease, replicate 2
[10] = sheet LOPAC_screen_w_protease, LOPAC1280 at 5 µM, mean of two replicates
[11] = sheet LOPAC_screen_w_protease, LOPAC1280 at 5 µM, replicate 1
[12] = sheet LOPAC_screen_w_protease, LOPAC1280 at 5 µM, replicate 2
[13] = LOPAC1280 primary screen with protease, 5 µM compound, replicate 1, read-out: Replicate_1 (LOPAC_screen_w_protease)
[14] = LOPAC1280 primary screen with protease, 5 µM compound, replicate 2, read-out: Replicate_2 (LOPAC_screen_w_protease)
[15] = LOPAC1280 primary screen with protease, 5 µM compound, mean of two replicates
[16] = sheet LOPAC_screen_w_protease, primary screen with protease, compound at 5 µM, mean of two replicates, read-out: mean
[17] = sheet LOPAC_screen_w_protease, primary screen with protease, compound at 5 µM, replicate 1, read-out: Replicate_1
[18] = sheet LOPAC_screen_w_protease, primary screen with protease, compound at 5 µM, replicate 2, read-out: Replicate_2
[19] = sheet LOPAC_screen_w_protease, primary screen with protease, 5 µM, mean of two replicates, read-out: mean
[20] = sheet LOPAC_screen_w_protease, primary screen with protease, 5 µM, replicate 1, read-out: Replicate_1
[21] = sheet LOPAC_screen_w_protease, primary screen with protease, 5 µM, replicate 2, read-out: Replicate_2
[22] = sheet LOPAC_screen_w_protease, primary screen of LOPAC1280 at 5 µM with protease, mean of the two replicates
[23] = sheet LOPAC_screen_w_protease, primary screen of LOPAC1280 at 5 µM with protease, replicate 1
[24] = sheet LOPAC_screen_w_protease, primary screen of LOPAC1280 at 5 µM with protease, replicate 2

## COc1ccc(C(=O)N2CCCC2=O)cc1 [Aniracetam]
Sheet LOPAC_screen_w_protease, primary screen at 5 µM, mean of two replicates, read-out: mean (LOPAC screen with protease)
  inhibition at 5 µM: 6.69%
Sheet LOPAC_screen_w_protease, primary screen at 5 µM, replicate 1, read-out: Replicate_1 (LOPAC screen with protease)
  inhibition at 5 µM: 9.93%
Sheet LOPAC_screen_w_protease, primary screen at 5 µM, replicate 2, read-out: Replicate_2 (LOPAC screen with protease)
  inhibition at 5 µM: 3.46%

## OC(CN1CCN(c2cccc(Cl)c2)CC1)C(c1ccccc1)c1ccccc1 (centres unmarked) [BRL 15572]
[1]
  mean (LOPAC_screen_w_protease): 1.912
[2]
  Replicate_1 (LOPAC_screen_w_protease): 0.6201
[3]
  Replicate_2 (LOPAC_screen_w_protease): 3.204

## O=C(O)[C@H]1C[C@H](C(=O)O)N1 (relative stereo) [trans-Azetidine-2,4-dicarboxylic acid]
[1]
  mean (LOPAC_screen_w_protease): 2.097
[2]
  Replicate_1 (LOPAC_screen_w_protease): 1.338
[3]
  Replicate_2 (LOPAC_screen_w_protease): 2.855

## O=C(O)/C=C1\CCCc2ccccc2C1O (centres unmarked) [NCS-382]
[4]
  mean: 5.8931
[5]
  Replicate_1: 5.187
[6]
  Replicate_2: 6.599

## COC(=O)c1c(-c2cc(OC)c(OC)c(OC)c2)c2ccc(OCc3ccccn3)cc2c(=O)n1-c1ccc(N)cc1.O=S(=O)(O)O [T-1032]
[7]
  mean: 0.5404
[8]
  Replicate_1: 1.02
[9]
  Replicate_2: 0.06128

## O=C(O)C=Cc1c[nH]cn1 [4-Imidazoleacrylic acid]
[10]
  mean: 0.9588
[11]
  Replicate_1: 1.559
[12]
  Replicate_2: 0.3591

## O=c1[nH]c2ccccc2n1CCCN1CCN(C(c2ccccc2)c2ccccc2)CC1 [Oxatomide]
Sheet LOPAC_screen_w_protease, LOPAC1280 primary screen with protease, 5 µM compound, mean of the two replicates, read-out: mean
  inhibition at 5 µM: 5.24%
Sheet LOPAC_screen_w_protease, LOPAC1280 primary screen with protease, 5 µM compound, replicate 1, read-out: Replicate_1
  inhibition at 5 µM: 4.62%
Sheet LOPAC_screen_w_protease, LOPAC1280 primary screen with protease, 5 µM compound, replicate 2, read-out: Replicate_2
  inhibition at 5 µM: 5.86%

## c1ccc(-c2ccccn2)nc1 [2,2'-Bipyridyl]
[7]
  mean: 0.8479
[8]
  Replicate_1: 3.924
[9]
  Replicate_2: -2.2286

## CCC(=O)c1ccc2c(c1)N(CCCN(C)C)c1ccccc1S2 [Propionylpromazine hydrochloride]
[13]
  inhibition at 5 µM: 2.15%
[14]
  inhibition at 5 µM: 0.621%
[15]
  mean (LOPAC_screen_w_protease): 1.386

## MDL 26,630 trihydrochloride
[4]
  mean: 6.178
[5]
  Replicate_1: 5.659
[6]
  Replicate_2: 6.697

## Cc1nnc2ccc(-c3cccc(C(F)(F)F)c3)nn12
[4]
  mean: 4.5531
[5]
  Replicate_1: 2.841
[6]
  Replicate_2: 6.265

## NC(CCP(=O)(O)O)C(=O)O (racemic) [(±)-2-Amino-4-phosphonobutyric acid]
[10]
  mean: 1.206
[11]
  Replicate_1: 2.762
[12]
  Replicate_2: -0.351

## Cc1cc(C(C)(C)C)cc(C)c1CC1=NCCN1 [Xylometazoline hydrochloride]
Sheet LOPAC_screen_w_protease, LOPAC1280 at 5 µM, mean of two replicates, read-out: mean
  inhibition at 5 µM: 1.12%
Sheet LOPAC_screen_w_protease, LOPAC1280 at 5 µM, replicate 1, read-out: Replicate_1
  inhibition at 5 µM: 0.813%
Sheet LOPAC_screen_w_protease, LOPAC1280 at 5 µM, replicate 2, read-out: Replicate_2
  inhibition at 5 µM: 1.42%

## CN1C(C(=O)Nc2ccccn2)=C(O)c2ccccc2S1(=O)=O [Piroxicam]
[16]
  inhibition at 5 µM: 3.01%
[17]
  inhibition at 5 µM: 1.9%
[18]
  inhibition at 5 µM: 4.12%

## O=c1[nH]c(=O)n([C@H]2C[C@H](O)[C@@H](CO)O2)cc1Br [5-Bromo-2'-deoxyuridine]
[13]
  inhibition at 5 µM: 1.74%
[14]
  inhibition at 5 µM: 1.06%
[15]
  mean (LOPAC_screen_w_protease): 1.398

## CN1CCN(CCCN2c3ccccc3Sc3ccc(C(F)(F)F)cc32)CC1 [Trifluoperazine dihydrochloride]
[19]
  inhibition at 5 µM: 0.187%
[20]
  inhibition at 5 µM: 0.0814%
[21]
  inhibition at 5 µM: 0.293%

## COC(=O)[C@H]1[C@H]2C[C@H]3c4[nH]c5ccccc5c4CCN3C[C@H]2CC[C@@H]1O [Rauwolscine hydrochloride]
[16]
  inhibition at 5 µM: 3.1%
[17]
  inhibition at 5 µM: 3.55%
[18]
  inhibition at 5 µM: 2.65%

## N/C(=N\C(=O)c1nc(Cl)c(N)nc1N)NCc1ccc(Cl)c(Cl)c1 [3',4'-Dichlorobenzamil]
[22]
  mean: 4.038
[23]
  Replicate_1: 5.158
[24]
  Replicate_2: 2.918

## O=c1[nH]c2ccccc2n1C1CCN(CCCC(c2ccc(F)cc2)c2ccc(F)cc2)CC1 [Pimozide]
[16]
  inhibition at 5 µM: 2.77%
[17]
  inhibition at 5 µM: 3.25%
[18]
  inhibition at 5 µM: 2.29%

## C#CCN[C@H](C)Cc1ccccc1.Cl [R-(-)-Desmethyldeprenyl hydrochloride]
  Replicate_1 (LOPAC_screen_w_protease): 3.419
  Replicate_2 (LOPAC_screen_w_protease): 0.5348
  mean (LOPAC_screen_w_protease): 1.9771

## O=C(O)CCC(C(=O)O)N1C(=O)c2ccccc2C1=O [L-Glutamic acid, N-phthaloyl-]
[10]
  mean: 1.263
[11]
  Replicate_1: 1.846
[12]
  Replicate_2: 0.6803

## N[C@H](C(=O)O)[C@H]1C[C@@H]1C(=O)O
  Replicate_1: 1.266
  Replicate_2: 1.079
  mean: 1.172

## OC(CCN1CCCCC1)(c1ccccc1)C1CCCCC1 (centres unmarked) [Trihexyphenidyl hydrochloride]
read-out: Replicate_1 (LOPAC_screen_w_protease)
  inhibition at 5 µM: 1.61%
read-out: Replicate_2 (LOPAC_screen_w_protease)
  inhibition at 5 µM: 1.86%

## COc1cc(OC)c(C=C2C(O)=Nc3ccccc32)c(OC)c1 [IC 261]
[13]
  inhibition at 5 µM: 1.63%
[14]
  inhibition at 5 µM: 1.3%
[15]
  mean (LOPAC_screen_w_protease): 1.465

## Nc1ccc(S(=O)(=O)Nc2ccnn2-c2ccccc2)cc1 [Sulfaphenazole]
[19]
  inhibition at 5 µM: 0.0259%
[20]
  inhibition at 5 µM: 0.159%
[21]
  inhibition at 5 µM: -0.107%

## Br.CO[C@H]1CC=C2CCN3CCC4=C(CC(=O)OC4)[C@]23C1 [Dihydro-beta-erythroidine hydrobromide]
[1]
  mean (LOPAC_screen_w_protease): 2.038
[2]
  Replicate_1 (LOPAC_screen_w_protease): 1.621
[3]
  Replicate_2 (LOPAC_screen_w_protease): 2.454

## Br.CCCN(CCC)[C@@H]1CCc2ccc(O)cc2C1 [R-(+)-7-Hydroxy-DPAT hydrobromide]
Sheet LOPAC_screen_w_protease, primary screen with protease, mean of two replicates
  mean: 2.2447
Sheet LOPAC_screen_w_protease, primary screen with protease, replicate 1
  Replicate_1: 2.253
Sheet LOPAC_screen_w_protease, primary screen with protease, replicate 2
  Replicate_2: 2.237

## CN(C)c1nc(N)c(C(=O)NC(=N)N)nc1Cl [5-(N,N-Dimethyl)amiloride hydrochloride]
[13]
  inhibition at 5 µM: 1.67%
[14]
  inhibition at 5 µM: 1.33%
[15]
  mean (LOPAC_screen_w_protease): 1.502

## [N-]=[N+]=Nc1ccc(C(=O)CSC[C@H](NC(=O)CC[C@H](N)C(=O)O)C(=O)NCC(=O)O)cc1 [S-(p-Azidophenacyl)glutathione]
Sheet LOPAC_screen_w_protease, primary screen with protease, compound at 5 µM, mean of two replicates
  mean: 2.647
Sheet LOPAC_screen_w_protease, primary screen with protease, compound at 5 µM, replicate 1
  Replicate_1: 2.672
Sheet LOPAC_screen_w_protease, primary screen with protease, compound at 5 µM, replicate 2
  Replicate_2: 2.621

## O=C1CCC(c2ccc(-n3ccnc3)cc2)=NN1 [Imazodan]
[19]
  inhibition at 5 µM: -0.683%
[20]
  inhibition at 5 µM: 0.89%
[21]
  inhibition at 5 µM: -2.26%

## CCCCN1CCC(n2c(=O)[nH]c3ccccc32)CC1.O=C(O)C(=O)O [NS 521 oxalate]
[22]
  mean: 3.504
[23]
  Replicate_1: 2.6467
[24]
  Replicate_2: 4.361

## CC(NC(C)(C)C)C(=O)c1cccc(Cl)c1 (centres unmarked) [Bupropion hydrochloride]
read-out: Replicate_1
  inhibition at 5 µM: 2.66%
read-out: Replicate_2
  inhibition at 5 µM: 2.67%
read-out: mean
  inhibition at 5 µM: 2.67%

## Cl.NCCNC(=O)c1ccc(Cl)cc1 [Ro 16-6491 hydrochloride]
Sheet LOPAC_screen_w_protease, primary screen with protease, 5 µM, mean of two replicates
  mean: -0.0598
Sheet LOPAC_screen_w_protease, primary screen with protease, 5 µM, replicate 1
  Replicate_1: 0.2844
Sheet LOPAC_screen_w_protease, primary screen with protease, 5 µM, replicate 2
  Replicate_2: -0.404

## O=c1c(-c2ccc(O)cc2)coc2cc(O)ccc12 [Daidzein]
read-out: Replicate_1
  inhibition at 5 µM: 5.3%
read-out: Replicate_2
  inhibition at 5 µM: 1.03%
read-out: mean
  inhibition at 5 µM: 3.16%

## N#CCCN.N#CCCN.O=C(O)/C=C/C(=O)O [3-Aminopropionitrile fumarate]
[10]
  mean: 0.9446
[11]
  Replicate_1: 1.551
[12]
  Replicate_2: 0.3384

## CC(NCCc1ccc(O)cc1)C(O)c1ccc(O)cc1 (centres unmarked) [Ritodrine hydrochloride]
[19]
  inhibition at 5 µM: -0.392%
[20]
  inhibition at 5 µM: -0.659%
[21]
  inhibition at 5 µM: -0.126%
